Counter-ions that a name gives are not always drawn.
Experiments:
[1] = Preliminary oral toxicity testing in mice; format: in vivo; conditions: one mouse per dosage; for LLD (lowest lethal dose): death within 24 hrs.; for MTD: in vivo, survival, read-out: HTD (highest tolerated dose)
Text: The toxicity of the compounds in accordance with the invention is investigated by orally administering different dosages of the dissolved or suspended compounds to mice. One mouse is used per dosage. The dosage is halved stepwise so that a dosage range of about 1.5 to the power of ten is covered. The results of this preliminary toxicity testing are reproduced in the form of two administered dosages.
The higher dosage (LLD=lowest lethal dose) led to death within 24 hrs., the lower dosage (HTD=highest tolerated dose) was survival. (Dosage data in miligram per kilogram body weight, administered orally).

MAO (substrate 5-HT) = target: T1, MAO (substrate 5-HT) (Rattus norvegicus, UniProt P21396); assay: MAO inhibition in vitro, rat brain homogenate, substrate 14C-labelled serotonin (5-HT); format: biochemical; conditions: substrate 5-HT 2×10^-4 M, 37° C.
T1 construct: 20 μl of rat brain homogenate; from tissue; host or cells: rat brain homogenate
T1 sequence (P21396 1-526): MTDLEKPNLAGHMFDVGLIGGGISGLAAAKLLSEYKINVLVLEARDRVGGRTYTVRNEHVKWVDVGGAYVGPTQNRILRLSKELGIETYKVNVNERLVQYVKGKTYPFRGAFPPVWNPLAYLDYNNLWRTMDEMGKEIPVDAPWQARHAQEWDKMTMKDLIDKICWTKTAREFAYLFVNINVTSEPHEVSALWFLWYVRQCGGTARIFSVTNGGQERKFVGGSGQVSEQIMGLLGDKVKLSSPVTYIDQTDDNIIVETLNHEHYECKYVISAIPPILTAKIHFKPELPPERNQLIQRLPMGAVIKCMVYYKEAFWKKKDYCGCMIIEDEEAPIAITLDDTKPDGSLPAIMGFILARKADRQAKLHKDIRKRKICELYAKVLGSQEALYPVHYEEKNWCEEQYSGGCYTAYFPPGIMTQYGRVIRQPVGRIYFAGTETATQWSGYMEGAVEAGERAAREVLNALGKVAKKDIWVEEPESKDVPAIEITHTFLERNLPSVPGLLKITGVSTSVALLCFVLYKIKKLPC
Description: (§1) The MAO inhibiting activity of the compounds in accordance with the invention can be determined in vitro or ex vivo using standard methods. The preparations to be tested were investigated in the tests described hereinafter, which were based on the methods of R. J. Wurtmann and J. A. Axelrod [Biochem. Pharmac. 12, 1439-41 (1963).
(§2) Isolated rat brains are homogenized in 0.1 molar potassium phosphate buffer (pH 7.4) in the ratio 1:4 (weight/volume), the homogenate is diluted with the same buffer in the ratio 1:5 (volume/volume) and stored at -20° C. A mixture of the following composition was used for the incubation:
(§3) 100 μl of 1M phosphate buffer (pH 6.7);
(§4) 100 μl of solution of the substance to be tested in water or in 10% aqueous dimethyl sulphoxide;
(§5) 20 μl of rat brain homogenate; and as the substrate
(§6) 80 μl of ^14 C-labelled serotonin (5-HT) or ^14 C-labelled phenylethylamine (PEA), the radioactive concentration of which amounts to 100,000 decay per minute and which is used in a final concentration of 2×10^-4 M and, respectively, 2×10^-5 M.
(§7) A pre-incubation at 37° C. is effected for 30 minutes prior to the addition of the substrate. The incubation (in the presence of the substrate) is likewise effected at 37° C. and lasts for 10 minutes. The reaction is stopped by the addition of 200 μl of 2N hydrochloric acid.
(§8) In order to extract the desaminated product, the mixture is shaken for 10 minutes with 5 ml of diethyl ether or with 5 ml of n-heptane depending on whether 5-HT or PEA is used as the substrate, whereupon the mixture is centrifuged, the aqueous phase is frozen in a dry-ice bath, the organic phase is transferred into a counting glass and the radioactive concentration is determined in a β-counter.
(§9) The activity of the MAO in comparison to the control homogenates (without substance to be tested) is obtained on the basis of the β-values and the IC50 is defined as that concentration of a substance to be tested which reduces the activity of the MAO upon the substrate 5-HT or PEA by 50%.

MAO (substrate PEA) = target: T2, MAO (substrate PEA) (Rattus norvegicus, UniProt P19643); assay: MAO inhibition in vitro, rat brain homogenate, substrate 14C-labelled phenylethylamine (PEA); format: biochemical; conditions: substrate PEA 2×10^-5 M, 37° C.
T2 construct: 20 μl of rat brain homogenate; from tissue; host or cells: rat brain homogenate
T2 sequence (P19643 1-520): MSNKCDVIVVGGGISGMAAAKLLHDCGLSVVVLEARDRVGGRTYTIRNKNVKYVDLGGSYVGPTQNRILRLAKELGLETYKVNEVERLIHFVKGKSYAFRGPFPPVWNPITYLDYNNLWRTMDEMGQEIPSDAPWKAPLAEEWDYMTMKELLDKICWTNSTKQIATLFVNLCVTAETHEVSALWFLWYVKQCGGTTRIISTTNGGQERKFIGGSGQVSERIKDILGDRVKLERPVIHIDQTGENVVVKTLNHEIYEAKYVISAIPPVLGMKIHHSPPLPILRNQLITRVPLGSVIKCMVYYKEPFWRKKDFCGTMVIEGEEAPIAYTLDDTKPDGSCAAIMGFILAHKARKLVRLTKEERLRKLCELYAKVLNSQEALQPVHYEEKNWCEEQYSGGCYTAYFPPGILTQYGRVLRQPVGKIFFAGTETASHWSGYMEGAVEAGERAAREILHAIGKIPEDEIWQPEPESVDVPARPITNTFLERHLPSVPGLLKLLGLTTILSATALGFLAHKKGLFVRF
Description: as §1, §2, §3, §4, §5, §6, §7, §8, §9

[2] = test system: MAO in the brain (substrate 5-HT); assay: MAO inhibition ex vivo in brain of rats, substrate 5-HT; parameters: species or system male albino rats (Fu-SPF); conditions: rat, 100 μmol/kg orally, 2 hrs., given in percentage of the control values
Description: as §1
(§10) The compounds to be tested are investigated for the inhibition of MAO in the brain and liver of male albino rats (Fu-SPF, 100-140 g. The test compounds are administered orally as a solution or suspension in water in a dosage of 100 μmol per kilogram body weight. After 2 hrs. the animals are narcotized and decapitated. The brain (without cerebellum) and a portion of the liver are dissected out and submitted analogously to the above-described procedure for the determination of the MAO inhibiting activity, whereby the amount of enzyme used is 20 μl of a 1:20 homogenate in the case of brain and 20 μl of a 1:80 homogenate in the case of liver. The activity of the compounds is determined from a comparison of the β-values with the values for control animals treated with vehicle and is given in percentage of the control values.

[3] = test system: MAO in the brain (substrate PEA); assay: MAO inhibition ex vivo in brain of rats, substrate PEA; parameters: species or system male albino rats (Fu-SPF); conditions: rat, 100 μmol/kg orally, 2 hrs., given in percentage of the control values
Description: as §1, §10

[4] = test system: MAO in the liver (substrate 5-HT); assay: MAO inhibition ex vivo in liver of rats, substrate 5-HT; parameters: species or system male albino rats (Fu-SPF); conditions: rat, 100 μmol/kg orally, 2 hrs., given in percentage of the control values
Description: as §1, §10

[5] = test system: MAO in the liver (substrate PEA); assay: MAO inhibition ex vivo in liver of rats, substrate PEA; parameters: species or system male albino rats (Fu-SPF); conditions: rat, 100 μmol/kg orally, 2 hrs., given in percentage of the control values
Description: as §1, §10

SMILES | LLD (lowest lethal dose) [1] | MTD [1] | IC50 (MAO (substrate 5-HT)) | IC50 (MAO (substrate PEA)) | Remaining brain MAO activity, 5-HT (% of control) [2] | Remaining brain MAO activity (PEA), % of control [3] | MAO inhibition, Liver, 5HT [4] | Remaining liver MAO activity (PEA), % of control [5]
CC1NCCn2c1cc1c2-c2ccc(Cl)cc2CC1.O=C(O)/C=C/C(=O)O (centres unmarked) [Example 31, 3-chloro-5,6,8,9,10,11-hexahydro-8-methylbenzo[g]pyrazino[1,2-a]indole fumarate (1:1)] | 1000 miligram per kilogram body wei | 500 mg/kg | – | – | – | – | – | –
CC1=NCCn2c1ccc2-c1ccccc1 [3,4-Dihydro-1-methyl-6-phenylpyrrolo[1,2-a]pyrazine] | – | – | 300 nM | > 1000 nM | – | – | – | –
CC1=NCCn2c1cc1c2-c2ccc(OC(C)C)cc2CC1 [5,6,10,11-tetrahydro-3-isopropoxy-8-methylbenzo[g]pyrazino[1,2-a]indole] | – | – | 0.4 nM | 14 nM | 8% | 60% | 10% | 75%
CC1=NCCn2c1ccc2-c1ccc(Cl)cc1.O=C(O)/C=C/C(=O)O [Example 2, 6-(p-chloro-phenyl)-3,4-dihydro-1-methylpyrrolo[1,2-a]pyrazine fumarate (1:1)] | 625 miligram per kilogram body wei | 312 mg/kg | – | – | – | – | – | –
CC1=NCCn2c1cc1c2-c2ccc(C)cc2CC1 [5,6,10,11-tetrahydro-3,8-dimethylbenzo[g]pyrazino[1,2-a]indole] | – | – | 2 nM | > 1000 nM | 43% | 82% | 17% | 96%
CC1=NCCn2c1ccc2-c1ccc(OC2CCCC2)cc1.O=C(O)/C=C/C(=O)O [Example 37, 6-[p-(cyclopentyloxy)phenyl]-3,4-dihydro-1-methylpyrrolo[1,2-a]pyrazine fumarate (1:1)] | 625 miligram per kilogram body wei | 312 mg/kg | – | – | – | – | – | –
CC1=NCCn2c1ccc2-c1ccc(Cl)cc1 [6-(p-Chlorophenyl)-3,4-dihydro-1-methylpyrrolo[1,2-a]pyrazine] | – | – | 350 nM | 10000 nM | – | – | – | –
CC1=NCCn2c1ccc2-c1ccc(OC2CCCC2)cc1 [6-[p-(Cyclopentyloxy)phenyl]-3,4-dihydro-1-methylpyrrolo[1,2-a]pyrazine] | – | – | 10 nM | < 1 nM | 67% | 33% | 38% | 56%
CC1=NCCn2c1cc1c2-c2ccc(OC3CCCC3)cc2CC1 [3-cyclopentyloxy-5,6,10,11-tetrahydro-8-methylbenzo[g]pyrazino[1,2-a]indole] | – | – | 1 nM | 7 nM | 13% | 45% | 8% | 50%
CC1=NCCn2c1cc1c2-c2ccccc2CC1 [5,6,10,11-Tetrahydro-8-methylbenzo[g]pyrazino[1,2-a]indole] | – | – | 30 nM | > 1000 nM | 48% | 87% | 47% | 81%
CC1=NCCn2c1cc1c2-c2ccccc2CC1 [Example 10, 5,6,10,11-tetrahydro-8-methyl-benzo[g]pyrazino[1,2-a]indole fumarate (2:3)] | 312 miligram per kilogram body wei | 156 mg/kg | – | – | – | – | – | –
CC1=NCCn2c1ccc2-c1ccccc1.O=C(O)/C=C/C(=O)O [Example 9, 3,4-dihydro-1-methyl-6-phenylpyrrolo[1,2-a]pyrazine fumarate (1:1)] | 625 miligram per kilogram body wei | 312 mg/kg | – | – | – | – | – | –
CC1=NCCn2cc(-c3ccccc3)cc21 [3,4-Dihydro-1-methyl-7-phenylpyrrolo[1,2-a]pyrazine] | – | – | 90 nM | > 1000 nM | – | – | – | –
CC1NCCn2c1cc1c2-c2ccccc2CC1 (centres unmarked) [5,6,8,9,10,11-Hexahydro-8-methylbenzo[g]pyrazino[1,2-a]indole] | – | – | 90 nM | > 1000 nM | 69% | 95% | 55% | 78%
CC1NCCn2c1cc1c2-c2ccccc2CC1.O=C(O)/C=C/C(=O)O (centres unmarked) [Example 29, 5,6,8,9,10,11-hexahydro-8-methylbenzo[g]pyrazino[1,2-a]indole fumarate (1:1)] | 625 miligram per kilogram body wei | 312 mg/kg | – | – | – | – | – | –
CC1=NCCn2c1cc1c2-c2ccc(Cl)cc2CC1.O=C(O)/C=C/C(=O)O [Example 12, 3-chloro-5,6,10,11-tetrahydro-8-methylbenzo[g]pyrazino[1,2-a]indole fumarate (1:1)] | 250 miligram per kilogram body wei | 125 mg/kg | – | – | – | – | – | –
CC1=NCCn2c1cc1c2-c2ccc(OC3CCCC3)cc2CC1.O=C(O)/C=C/C(=O)O [Example 53, 3-cyclopentyloxy-5,6,10,11-tetrahydro-8-methylbenzo[g]pyrazino[1,2-a]indole fumarate (1:1)] | 500 miligram per kilogram body wei | 250 mg/kg | – | – | – | – | – | –
COc1ccc(-c2ccc3n2CCN=C3C)cc1 [3,4-Dihydro-6-(p-methoxyphenyl)-1-methylpyrrolo[1,2-a]pyrazine] | – | – | 50 nM | > 1000 nM | – | – | – | –
CC1=NCCn2c1cc1c2-c2ccc(C3CCCCC3)cc2CC1 [3-cyclohexyl-5,6,10,11-tetrahydro-8-methylbenzo[g]pyrazino[1,2-a]indole] | – | – | 2 nM | 160 nM | – | – | – | –
